How the values were obtained:
[1] = target: T1, Nuclear receptor subfamily 1 group I member 2 (Homo sapiens, UniProt O75469); test: Activation of PXR (unknown origin)
T1 sequence (O75469 whole entry): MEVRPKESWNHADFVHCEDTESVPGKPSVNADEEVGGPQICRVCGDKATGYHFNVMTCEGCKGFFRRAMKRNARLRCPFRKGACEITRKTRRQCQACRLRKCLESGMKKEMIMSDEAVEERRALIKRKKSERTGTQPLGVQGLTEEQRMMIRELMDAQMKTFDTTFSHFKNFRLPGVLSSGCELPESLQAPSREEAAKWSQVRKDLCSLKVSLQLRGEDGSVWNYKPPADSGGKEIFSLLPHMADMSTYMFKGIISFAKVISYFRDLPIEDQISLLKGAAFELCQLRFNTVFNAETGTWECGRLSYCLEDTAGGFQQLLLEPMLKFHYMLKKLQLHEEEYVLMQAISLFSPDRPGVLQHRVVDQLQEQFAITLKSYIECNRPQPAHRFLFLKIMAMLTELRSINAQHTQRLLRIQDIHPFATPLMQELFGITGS

[2] = target: T2, Relaxin receptor 1 (Rattus norvegicus, UniProt Q6R6I6); test: Agonist activity at rat RXFP1 stably expressed in HEK293 cells assessed as intracellular cAMP accumulation incubated for 30 mins by HTRF assay; assay type: cell-based
T2 sequence (Q6R6I6 whole entry): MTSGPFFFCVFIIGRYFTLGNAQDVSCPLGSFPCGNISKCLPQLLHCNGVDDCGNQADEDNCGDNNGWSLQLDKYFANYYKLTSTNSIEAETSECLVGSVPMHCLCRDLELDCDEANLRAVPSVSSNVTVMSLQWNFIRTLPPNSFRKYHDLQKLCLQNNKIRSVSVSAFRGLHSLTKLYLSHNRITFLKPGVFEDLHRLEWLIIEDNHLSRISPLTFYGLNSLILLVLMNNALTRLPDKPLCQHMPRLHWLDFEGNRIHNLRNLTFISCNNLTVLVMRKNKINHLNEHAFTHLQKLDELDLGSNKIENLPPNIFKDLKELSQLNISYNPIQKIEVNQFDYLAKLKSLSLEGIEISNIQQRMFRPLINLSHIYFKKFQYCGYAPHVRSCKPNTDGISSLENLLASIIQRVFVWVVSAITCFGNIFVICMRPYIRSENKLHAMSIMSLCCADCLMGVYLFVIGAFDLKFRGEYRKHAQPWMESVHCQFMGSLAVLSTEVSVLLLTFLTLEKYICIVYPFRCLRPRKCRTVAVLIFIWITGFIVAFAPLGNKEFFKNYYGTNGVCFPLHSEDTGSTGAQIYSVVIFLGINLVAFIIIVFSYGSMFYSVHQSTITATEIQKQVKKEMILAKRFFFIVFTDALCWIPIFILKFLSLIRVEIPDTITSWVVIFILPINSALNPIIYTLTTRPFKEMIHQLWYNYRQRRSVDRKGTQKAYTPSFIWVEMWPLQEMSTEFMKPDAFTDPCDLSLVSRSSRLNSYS

[3] = Microsomal stability in mouse liver microsomes assessed as half life; assay type: ADME, Microsome
[4] = target: T3, Relaxin receptor 1 (Homo sapiens, UniProt Q9HBX9); test: Agonist activity at human RXFP1 stably expressed in HEK293 cells assessed as intracellular cAMP accumulation incubated for 30 mins by HTRF assay
T3 sequence (Q9HBX9 whole entry): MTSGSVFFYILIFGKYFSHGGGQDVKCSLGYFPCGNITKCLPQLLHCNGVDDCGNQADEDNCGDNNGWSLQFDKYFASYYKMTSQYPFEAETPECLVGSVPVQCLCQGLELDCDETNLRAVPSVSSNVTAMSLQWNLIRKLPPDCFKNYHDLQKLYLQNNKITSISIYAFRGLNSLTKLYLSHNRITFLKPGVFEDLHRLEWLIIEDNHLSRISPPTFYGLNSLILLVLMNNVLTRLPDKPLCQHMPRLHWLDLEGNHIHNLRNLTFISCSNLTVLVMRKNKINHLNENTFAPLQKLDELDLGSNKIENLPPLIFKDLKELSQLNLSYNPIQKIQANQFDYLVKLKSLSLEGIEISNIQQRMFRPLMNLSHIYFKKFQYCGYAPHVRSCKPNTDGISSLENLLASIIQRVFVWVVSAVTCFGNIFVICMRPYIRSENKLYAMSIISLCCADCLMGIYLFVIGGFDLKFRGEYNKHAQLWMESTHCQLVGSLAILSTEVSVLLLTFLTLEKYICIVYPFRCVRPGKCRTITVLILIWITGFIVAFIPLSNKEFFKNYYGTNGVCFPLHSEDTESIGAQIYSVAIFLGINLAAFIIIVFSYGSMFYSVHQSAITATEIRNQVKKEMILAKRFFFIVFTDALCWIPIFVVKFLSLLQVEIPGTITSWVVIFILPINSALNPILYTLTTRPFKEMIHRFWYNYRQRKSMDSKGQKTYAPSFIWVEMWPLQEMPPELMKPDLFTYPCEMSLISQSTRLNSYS

[5] = target: Cytochrome P450 3A4 (Homo sapiens, UniProt P08684); test: Inhibition of CYP3A4 (unknown origin)
[6] = target: hERG (Homo sapiens, UniProt Q12809); test: Inhibition of hERG (unknown origin) at 30 uM by patch clamp assay relative to control
[7] = target: Cytochrome P450 2C19 (Homo sapiens, UniProt P33261); test: Inhibition of CYP2C19 (unknown origin)
Sequence of Cytochrome P450 2C19 (P33261 whole entry): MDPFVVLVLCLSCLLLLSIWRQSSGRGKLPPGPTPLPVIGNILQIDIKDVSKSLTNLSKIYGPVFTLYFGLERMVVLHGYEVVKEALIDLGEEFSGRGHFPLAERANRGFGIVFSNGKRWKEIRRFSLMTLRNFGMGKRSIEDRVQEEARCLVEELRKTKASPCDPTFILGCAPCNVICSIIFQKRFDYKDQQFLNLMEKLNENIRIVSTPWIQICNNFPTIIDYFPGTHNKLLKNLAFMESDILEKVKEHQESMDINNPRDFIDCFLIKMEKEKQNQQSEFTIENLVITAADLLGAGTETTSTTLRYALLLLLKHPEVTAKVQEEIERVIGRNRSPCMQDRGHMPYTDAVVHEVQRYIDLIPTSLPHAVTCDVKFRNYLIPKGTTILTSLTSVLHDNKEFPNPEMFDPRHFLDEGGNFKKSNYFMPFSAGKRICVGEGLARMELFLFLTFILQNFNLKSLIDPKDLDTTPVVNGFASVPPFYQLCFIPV

Sequence of Cytochrome P450 3A4 (P08684 whole entry): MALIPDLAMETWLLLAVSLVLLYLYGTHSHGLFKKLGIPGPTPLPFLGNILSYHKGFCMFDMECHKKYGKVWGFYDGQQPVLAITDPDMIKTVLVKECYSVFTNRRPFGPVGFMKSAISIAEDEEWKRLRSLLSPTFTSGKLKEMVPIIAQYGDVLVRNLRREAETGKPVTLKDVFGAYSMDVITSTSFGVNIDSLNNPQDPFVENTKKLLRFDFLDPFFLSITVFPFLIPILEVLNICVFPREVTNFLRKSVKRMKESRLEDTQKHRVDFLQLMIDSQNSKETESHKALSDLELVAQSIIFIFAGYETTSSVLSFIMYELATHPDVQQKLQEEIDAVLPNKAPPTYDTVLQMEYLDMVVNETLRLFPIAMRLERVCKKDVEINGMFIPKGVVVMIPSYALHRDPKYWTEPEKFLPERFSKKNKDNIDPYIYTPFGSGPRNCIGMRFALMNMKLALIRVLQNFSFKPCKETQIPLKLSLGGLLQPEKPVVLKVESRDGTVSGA
Sequence of hERG (Q12809 whole entry): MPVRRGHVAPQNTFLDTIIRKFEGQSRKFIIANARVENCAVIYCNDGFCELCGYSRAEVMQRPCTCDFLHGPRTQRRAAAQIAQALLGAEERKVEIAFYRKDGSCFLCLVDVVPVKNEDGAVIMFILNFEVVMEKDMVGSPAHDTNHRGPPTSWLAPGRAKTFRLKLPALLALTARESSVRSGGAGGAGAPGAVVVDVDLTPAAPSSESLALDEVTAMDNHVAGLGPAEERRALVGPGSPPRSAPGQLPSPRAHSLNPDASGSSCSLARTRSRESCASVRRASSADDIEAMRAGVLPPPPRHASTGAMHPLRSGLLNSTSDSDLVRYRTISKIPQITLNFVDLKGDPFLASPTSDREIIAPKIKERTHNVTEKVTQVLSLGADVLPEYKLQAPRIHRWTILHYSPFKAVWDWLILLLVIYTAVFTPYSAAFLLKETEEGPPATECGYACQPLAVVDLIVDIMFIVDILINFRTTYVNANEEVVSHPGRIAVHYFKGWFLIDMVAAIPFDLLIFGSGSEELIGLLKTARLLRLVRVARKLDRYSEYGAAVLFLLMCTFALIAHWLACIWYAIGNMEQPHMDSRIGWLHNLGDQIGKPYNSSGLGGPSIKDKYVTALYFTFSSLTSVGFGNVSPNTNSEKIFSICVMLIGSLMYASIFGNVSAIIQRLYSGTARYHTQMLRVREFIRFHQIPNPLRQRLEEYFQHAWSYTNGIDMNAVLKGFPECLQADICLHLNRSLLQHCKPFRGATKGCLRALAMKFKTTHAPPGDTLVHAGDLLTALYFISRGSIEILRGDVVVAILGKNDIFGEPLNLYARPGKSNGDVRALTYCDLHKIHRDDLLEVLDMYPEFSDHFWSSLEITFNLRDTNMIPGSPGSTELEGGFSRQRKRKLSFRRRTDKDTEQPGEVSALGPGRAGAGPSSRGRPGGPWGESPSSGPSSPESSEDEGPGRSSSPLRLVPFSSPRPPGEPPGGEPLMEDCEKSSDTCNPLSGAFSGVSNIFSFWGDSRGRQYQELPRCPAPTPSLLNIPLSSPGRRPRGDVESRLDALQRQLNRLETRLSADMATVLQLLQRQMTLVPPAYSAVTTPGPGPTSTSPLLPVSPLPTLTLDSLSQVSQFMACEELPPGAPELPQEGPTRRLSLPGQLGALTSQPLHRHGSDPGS

## CNC(=O)OC(C(=O)O)c1ccc(F)c(-c2ccc(OC)c(C(=O)N[C@H]3[C@@H](C(=O)Nc4ccc(F)c(C(F)(F)F)c4)[C@H]4CC[C@@H]3/C4=C\C3CC3)c2)c1 (stereo in doubt; 39)
[1]
  EC50: > 50 µM
[2]
  EC50: 0.045 µM
[3]
  half-life: > 2 h
[4]
  EC50: 0.002 µM
[5]
  IC50: > 20 µM
[6]
  inhibition at 30 µM: 7%
[7]
  IC50: 17 µM
